Reference: ChEMBL document CHEMBL5696441 (Nat Chem Biol, 2011)

Assays:
[1] = target: Mitogen-activated protein kinase kinase kinase kinase 3 (Homo sapiens) (UniProt Q8IVH8); test: Inhibition of MAP4K3 (unknown origin) assessed as remaining activity at 1 uM by Kinome scan method relative to control
[2] = target: Mitogen-activated protein kinase kinase kinase kinase 1 (Homo sapiens) (UniProt Q92918); test: Inhibition of HPK1 (unknown origin) assessed as remaining activity at 1 uM by Kinome scan method relative to control
[3] = target: T1, Serine/threonine-protein kinase NLK (Homo sapiens) (UniProt Q9UBE8); test: Inhibition of NLK (unknown origin) assessed as remaining activity at 1 uM by Kinome scan method relative to control
T1 sequence (whole entry): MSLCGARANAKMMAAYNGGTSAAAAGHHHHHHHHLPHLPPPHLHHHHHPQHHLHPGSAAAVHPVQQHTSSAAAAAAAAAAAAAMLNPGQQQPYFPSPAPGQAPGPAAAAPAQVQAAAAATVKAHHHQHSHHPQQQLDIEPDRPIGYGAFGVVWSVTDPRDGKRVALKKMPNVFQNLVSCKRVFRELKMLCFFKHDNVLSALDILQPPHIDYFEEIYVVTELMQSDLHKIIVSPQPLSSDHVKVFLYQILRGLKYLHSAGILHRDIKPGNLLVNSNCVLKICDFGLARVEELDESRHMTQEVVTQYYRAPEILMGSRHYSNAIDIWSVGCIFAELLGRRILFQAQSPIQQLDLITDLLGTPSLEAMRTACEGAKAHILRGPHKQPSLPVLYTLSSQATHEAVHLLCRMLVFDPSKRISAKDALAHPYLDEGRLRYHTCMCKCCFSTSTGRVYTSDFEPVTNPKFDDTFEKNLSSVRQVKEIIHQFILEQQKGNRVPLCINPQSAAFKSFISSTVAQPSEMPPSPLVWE

[4] = target: T2, Calcium/calmodulin-dependent protein kinase type IV (Homo sapiens) (UniProt Q16566); test: Inhibition of CAMK4 (unknown origin) assessed as remaining activity at 1 uM by Kinome scan method relative to control
T2 sequence (whole entry): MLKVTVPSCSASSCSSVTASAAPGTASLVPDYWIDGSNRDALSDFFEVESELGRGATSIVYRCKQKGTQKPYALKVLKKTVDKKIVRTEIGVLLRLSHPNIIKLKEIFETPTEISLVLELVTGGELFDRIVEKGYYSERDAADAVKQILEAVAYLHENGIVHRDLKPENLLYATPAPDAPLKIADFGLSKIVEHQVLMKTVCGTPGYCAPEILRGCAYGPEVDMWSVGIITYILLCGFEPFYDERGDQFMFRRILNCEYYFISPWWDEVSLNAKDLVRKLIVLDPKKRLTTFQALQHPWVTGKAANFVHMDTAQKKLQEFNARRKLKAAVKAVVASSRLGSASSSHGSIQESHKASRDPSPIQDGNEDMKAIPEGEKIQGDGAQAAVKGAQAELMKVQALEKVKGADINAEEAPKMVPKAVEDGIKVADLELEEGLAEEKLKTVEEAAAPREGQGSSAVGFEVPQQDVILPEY

[5] = target: Cyclin-G-associated kinase (Homo sapiens) (UniProt O14976); test: Inhibition of GAK (unknown origin) assessed as remaining activity at 1 uM by Kinome scan method relative to control
[6] = target: Serine/threonine-protein kinase ICK (Homo sapiens) (UniProt Q9UPZ9); test: Inhibition of ICK (unknown origin) assessed as remaining activity at 1 uM by Kinome scan method relative to control
[7] = target: Myosin light chain kinase family member 4 (Homo sapiens) (UniProt Q86YV6); test: Inhibition of SgK085 (unknown origin) assessed as remaining activity at 1 uM by Kinome scan method relative to control
[8] = target: Non-receptor tyrosine-protein kinase TNK1 (Homo sapiens) (UniProt Q13470); test: Inhibition of TNK1 (unknown origin) assessed as remaining activity at 1 uM by Kinome scan method relative to control
[9] = target: cAMP-dependent protein kinase catalytic subunit alpha (Homo sapiens) (UniProt P17612); test: Inhibition of PKAC-alpha (unknown origin) assessed as remaining activity at 1 uM by Kinome scan method relative to control
[10] = target: Dual specificity tyrosine-phosphorylation-regulated kinase 2 (Homo sapiens) (UniProt Q92630); test: Inhibition of DYRK2 (unknown origin) assessed as remaining activity at 1 uM by Kinome scan method relative to control
[11] = target: Phosphatidylinositol 4-kinase beta (Homo sapiens) (UniProt Q9UBF8); test: Inhibition of PIK4CB (unknown origin) assessed as remaining activity at 1 uM by Kinome scan method relative to control
[12] = target: T3, Tyrosine-protein kinase TXK (Homo sapiens) (UniProt P42681); test: Inhibition of TXK (unknown origin) assessed as remaining activity at 1 uM by Kinome scan method relative to control
T3 sequence (whole entry): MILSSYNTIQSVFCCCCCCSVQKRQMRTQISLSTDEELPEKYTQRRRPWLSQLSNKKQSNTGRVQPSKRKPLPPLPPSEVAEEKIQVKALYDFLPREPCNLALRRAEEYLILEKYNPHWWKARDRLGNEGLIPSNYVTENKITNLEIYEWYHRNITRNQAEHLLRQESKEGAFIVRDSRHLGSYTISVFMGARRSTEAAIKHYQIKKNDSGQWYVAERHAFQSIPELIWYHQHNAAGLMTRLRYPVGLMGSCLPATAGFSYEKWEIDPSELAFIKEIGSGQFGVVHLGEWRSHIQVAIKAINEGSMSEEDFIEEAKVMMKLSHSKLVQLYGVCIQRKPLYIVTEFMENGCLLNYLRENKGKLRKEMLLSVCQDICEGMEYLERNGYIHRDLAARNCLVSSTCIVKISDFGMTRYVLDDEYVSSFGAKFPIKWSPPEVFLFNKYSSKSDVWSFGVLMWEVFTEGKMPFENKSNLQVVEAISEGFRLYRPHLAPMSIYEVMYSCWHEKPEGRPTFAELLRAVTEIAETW

[13] = target: Cyclin-dependent kinase 16 (Homo sapiens) (UniProt Q00536); test: Inhibition of PCTK1 (unknown origin) assessed as remaining activity at 1 uM by Kinome scan method relative to control
Sequence of Cyclin-dependent kinase 16 (Homo sapiens) (Q00536 whole entry): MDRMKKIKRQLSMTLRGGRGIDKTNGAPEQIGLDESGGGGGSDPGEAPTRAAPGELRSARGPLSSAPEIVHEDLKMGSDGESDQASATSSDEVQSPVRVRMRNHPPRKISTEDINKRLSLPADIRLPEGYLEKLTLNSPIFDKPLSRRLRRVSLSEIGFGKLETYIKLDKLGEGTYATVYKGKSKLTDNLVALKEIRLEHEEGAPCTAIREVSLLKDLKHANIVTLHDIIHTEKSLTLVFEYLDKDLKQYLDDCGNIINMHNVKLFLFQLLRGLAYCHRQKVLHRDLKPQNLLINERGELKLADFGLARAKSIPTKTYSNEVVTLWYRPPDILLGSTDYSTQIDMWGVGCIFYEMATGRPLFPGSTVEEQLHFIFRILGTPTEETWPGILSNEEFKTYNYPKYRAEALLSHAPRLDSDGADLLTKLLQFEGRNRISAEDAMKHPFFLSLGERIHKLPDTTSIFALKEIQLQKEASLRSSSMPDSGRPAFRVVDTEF

Sequence of Phosphatidylinositol 4-kinase beta (Homo sapiens) (Q9UBF8 2-816 limits assumed): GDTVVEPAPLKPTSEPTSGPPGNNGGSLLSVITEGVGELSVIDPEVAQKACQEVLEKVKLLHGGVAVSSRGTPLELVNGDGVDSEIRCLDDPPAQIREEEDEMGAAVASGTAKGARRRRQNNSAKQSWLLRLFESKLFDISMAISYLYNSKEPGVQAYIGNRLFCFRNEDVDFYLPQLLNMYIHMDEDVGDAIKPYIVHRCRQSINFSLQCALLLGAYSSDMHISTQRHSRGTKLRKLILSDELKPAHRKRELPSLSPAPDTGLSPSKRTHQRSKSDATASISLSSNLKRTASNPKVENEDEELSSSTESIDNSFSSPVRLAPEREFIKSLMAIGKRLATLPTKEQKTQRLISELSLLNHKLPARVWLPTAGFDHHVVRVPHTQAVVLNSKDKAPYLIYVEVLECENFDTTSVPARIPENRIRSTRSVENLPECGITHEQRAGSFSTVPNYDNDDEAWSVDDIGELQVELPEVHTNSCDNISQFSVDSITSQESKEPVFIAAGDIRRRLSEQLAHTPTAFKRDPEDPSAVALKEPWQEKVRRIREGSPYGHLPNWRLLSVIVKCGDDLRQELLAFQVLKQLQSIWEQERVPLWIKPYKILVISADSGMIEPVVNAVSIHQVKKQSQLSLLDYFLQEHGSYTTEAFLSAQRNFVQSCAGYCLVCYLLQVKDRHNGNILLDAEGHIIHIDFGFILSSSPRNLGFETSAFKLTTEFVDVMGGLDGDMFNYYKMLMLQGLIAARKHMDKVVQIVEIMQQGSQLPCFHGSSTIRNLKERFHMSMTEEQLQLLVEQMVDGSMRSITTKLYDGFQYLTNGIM
Sequence of Mitogen-activated protein kinase kinase kinase kinase 3 (Homo sapiens) (Q8IVH8 whole entry): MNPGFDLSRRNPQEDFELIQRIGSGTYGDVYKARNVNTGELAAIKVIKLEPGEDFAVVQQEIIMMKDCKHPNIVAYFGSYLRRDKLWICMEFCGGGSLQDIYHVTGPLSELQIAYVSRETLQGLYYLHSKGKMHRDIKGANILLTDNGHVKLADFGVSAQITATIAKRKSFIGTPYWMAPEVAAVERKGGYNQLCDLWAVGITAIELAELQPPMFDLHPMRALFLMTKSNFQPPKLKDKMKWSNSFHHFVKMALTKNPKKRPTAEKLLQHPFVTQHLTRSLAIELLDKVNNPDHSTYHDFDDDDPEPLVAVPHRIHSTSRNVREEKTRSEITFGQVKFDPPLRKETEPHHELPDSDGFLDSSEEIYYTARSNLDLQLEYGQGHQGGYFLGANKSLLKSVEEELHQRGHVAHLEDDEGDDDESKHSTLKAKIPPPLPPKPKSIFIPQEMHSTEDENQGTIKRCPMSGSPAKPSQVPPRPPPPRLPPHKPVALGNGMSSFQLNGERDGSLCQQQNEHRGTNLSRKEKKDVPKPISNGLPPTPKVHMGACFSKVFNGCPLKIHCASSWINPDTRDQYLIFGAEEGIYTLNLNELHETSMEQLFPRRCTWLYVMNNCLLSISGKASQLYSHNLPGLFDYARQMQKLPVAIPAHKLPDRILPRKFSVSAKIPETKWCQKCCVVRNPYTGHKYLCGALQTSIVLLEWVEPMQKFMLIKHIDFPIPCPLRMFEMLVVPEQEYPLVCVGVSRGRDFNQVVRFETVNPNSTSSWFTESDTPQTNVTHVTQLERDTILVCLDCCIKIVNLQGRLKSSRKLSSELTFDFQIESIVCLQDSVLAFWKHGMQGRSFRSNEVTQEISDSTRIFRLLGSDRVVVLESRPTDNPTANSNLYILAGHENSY
Sequence of Mitogen-activated protein kinase kinase kinase kinase 1 (Homo sapiens) (Q92918 whole entry, looked up): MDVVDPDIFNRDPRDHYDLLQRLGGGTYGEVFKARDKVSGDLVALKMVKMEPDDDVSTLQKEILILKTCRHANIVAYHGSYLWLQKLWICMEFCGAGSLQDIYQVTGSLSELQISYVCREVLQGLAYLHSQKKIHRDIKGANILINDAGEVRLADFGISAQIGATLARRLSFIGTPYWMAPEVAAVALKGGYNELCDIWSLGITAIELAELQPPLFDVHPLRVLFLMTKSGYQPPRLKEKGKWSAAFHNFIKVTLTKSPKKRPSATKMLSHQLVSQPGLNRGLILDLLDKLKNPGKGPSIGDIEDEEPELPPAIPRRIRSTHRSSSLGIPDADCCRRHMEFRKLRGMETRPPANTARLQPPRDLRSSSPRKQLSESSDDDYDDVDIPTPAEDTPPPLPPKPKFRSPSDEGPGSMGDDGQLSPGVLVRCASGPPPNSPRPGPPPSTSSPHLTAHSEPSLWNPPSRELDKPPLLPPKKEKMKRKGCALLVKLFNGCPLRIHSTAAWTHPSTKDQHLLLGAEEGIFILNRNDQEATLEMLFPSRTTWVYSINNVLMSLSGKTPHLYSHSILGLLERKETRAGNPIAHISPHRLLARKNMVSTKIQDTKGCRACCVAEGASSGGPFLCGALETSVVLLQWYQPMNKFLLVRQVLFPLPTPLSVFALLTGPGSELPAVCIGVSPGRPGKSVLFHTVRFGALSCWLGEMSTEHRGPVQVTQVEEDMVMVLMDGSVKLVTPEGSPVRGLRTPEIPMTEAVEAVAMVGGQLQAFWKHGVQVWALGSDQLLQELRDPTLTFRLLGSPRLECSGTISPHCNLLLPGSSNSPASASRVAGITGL
Sequence of Myosin light chain kinase family member 4 (Homo sapiens) (Q86YV6 whole entry): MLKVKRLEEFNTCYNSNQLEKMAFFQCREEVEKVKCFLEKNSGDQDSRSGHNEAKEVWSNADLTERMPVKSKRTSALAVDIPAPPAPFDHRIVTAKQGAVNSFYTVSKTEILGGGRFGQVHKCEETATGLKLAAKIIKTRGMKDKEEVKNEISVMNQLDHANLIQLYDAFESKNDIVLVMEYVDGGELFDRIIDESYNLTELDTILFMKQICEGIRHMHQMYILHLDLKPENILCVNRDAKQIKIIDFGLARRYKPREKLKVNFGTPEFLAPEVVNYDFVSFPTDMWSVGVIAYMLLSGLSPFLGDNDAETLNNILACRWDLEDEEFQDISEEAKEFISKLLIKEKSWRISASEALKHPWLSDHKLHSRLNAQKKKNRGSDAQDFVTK
Sequence of Dual specificity tyrosine-phosphorylation-regulated kinase 2 (Homo sapiens) (Q92630 whole entry): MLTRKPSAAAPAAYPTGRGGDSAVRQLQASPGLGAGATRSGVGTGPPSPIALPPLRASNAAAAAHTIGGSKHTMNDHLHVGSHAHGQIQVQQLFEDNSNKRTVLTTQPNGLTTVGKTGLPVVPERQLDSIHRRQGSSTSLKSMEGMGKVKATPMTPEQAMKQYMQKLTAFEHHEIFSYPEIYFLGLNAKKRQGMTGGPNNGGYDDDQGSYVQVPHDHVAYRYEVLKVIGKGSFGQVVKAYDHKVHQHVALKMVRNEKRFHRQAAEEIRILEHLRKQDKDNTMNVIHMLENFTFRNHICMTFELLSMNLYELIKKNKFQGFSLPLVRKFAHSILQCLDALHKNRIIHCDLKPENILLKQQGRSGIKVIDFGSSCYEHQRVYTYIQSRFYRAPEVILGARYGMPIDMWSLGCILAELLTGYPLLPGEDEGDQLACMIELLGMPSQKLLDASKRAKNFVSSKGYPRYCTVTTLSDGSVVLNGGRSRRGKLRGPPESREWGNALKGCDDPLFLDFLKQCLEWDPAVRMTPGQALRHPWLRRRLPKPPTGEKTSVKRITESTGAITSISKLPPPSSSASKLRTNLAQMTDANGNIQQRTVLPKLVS
Sequence of Serine/threonine-protein kinase ICK (Homo sapiens) (Q9UPZ9 whole entry): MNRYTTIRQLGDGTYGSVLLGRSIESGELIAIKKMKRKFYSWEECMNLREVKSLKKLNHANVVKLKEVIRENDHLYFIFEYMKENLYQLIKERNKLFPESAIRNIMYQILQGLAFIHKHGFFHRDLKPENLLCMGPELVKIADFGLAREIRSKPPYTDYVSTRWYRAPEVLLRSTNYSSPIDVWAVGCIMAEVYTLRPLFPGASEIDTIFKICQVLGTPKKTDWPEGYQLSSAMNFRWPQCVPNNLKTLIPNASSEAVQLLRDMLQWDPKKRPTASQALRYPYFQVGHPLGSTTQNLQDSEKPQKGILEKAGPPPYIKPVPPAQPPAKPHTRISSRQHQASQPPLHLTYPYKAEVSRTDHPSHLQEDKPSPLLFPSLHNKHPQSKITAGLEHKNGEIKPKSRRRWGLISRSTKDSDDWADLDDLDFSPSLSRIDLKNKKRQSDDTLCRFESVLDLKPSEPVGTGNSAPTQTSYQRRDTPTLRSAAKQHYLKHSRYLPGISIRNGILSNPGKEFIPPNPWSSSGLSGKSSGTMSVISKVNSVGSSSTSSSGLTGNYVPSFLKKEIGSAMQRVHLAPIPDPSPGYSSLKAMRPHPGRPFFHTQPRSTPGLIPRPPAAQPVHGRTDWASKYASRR

SMILES	Activity [1] [%]	Activity [2] [%]	Activity [3] [%]	Activity [4] [%]	Activity [5] [%]	Activity [6] [%]	Activity [7] [%]	Activity [8] [%]	Activity [9] [%]	Activity [10] [%]	Activity [11] [%]	Activity [12] [%]	Activity [13] [%]
Nc1ccccc1Nc1ccc2c(c1)CCc1ccccc1C2=O	75	96	87	90	93	83	97	90	83	75	91	90	98
O=C1c2ccc(Nc3ccc(F)cc3F)cc2CCc2ccc(OC[C@H](O)CO)cc21 [Skepinone-L]	88	85	96	90	53	99	100	79	95	86	95	86	85
